Assay results taken from article PMC3772838, “Preclinical Development of a Novel Class of CXCR4 Antagonist Impairing Solid Tumors Growth and Metastases” (PLoS ONE, 2013).

How the values were obtained:
[1] = tested on: B16-CXCR4 murine melanoma cells; assay: B16-CXCR4 melanoma lung metastases model; type: in vivo, C57BL/6 mice; conditions: cells pre-treated 30 min with 10 µM, IP once a day for 10 days, peptides 2 mg/kg, AMD3100 1.25 mg/kg
Experimental: (§1) All mice were obtained from Harlan (Bar Harbor, ME, USA) and their care was in accord with institutional guidelines. Twenty-five 6-8-week-old female C57BL/6 mice were inoculated into the tail vein with 5×10^5 B16–CXCR4 cells pre-treated for 30 minutes with peptide S (10 µM), peptide R (10 µM), peptide I (10 µM), or AMD3100 (10 µM). Six hours later intraperitoneal (IP) treatment started with AMD3100 (1.25 mg/kg) or each peptide (2 mg/kg) in sterile PBS once a day for 10 days. A week later the mice were sacrificed. The experiment was repeated three times. The lung metastases assay was also conducted with K7M2 murine osteosarcoma cells. Twenty-five 6-8-week-old female Balb/c mice were injected via tail vein with 2.5×10^5 K7M2 cells pre-treated for 30 minutes with AMD3100 (10 µM), peptide S (10 µM), peptide R (10 µM), peptide I (10 µM) and animals were treated IP daily for 15 days with 2.5 mg/kg for AMD3100 group and 10 mg/kg for each peptide groups. A week later the mice were sacrificed. Xenograft tumor growth was evaluated using pEGFP-SN12C cells in exponential growth phase subcutaneously injected into the right flank of twenty-five 6-8-week-old female CD1 nude mice. 2×10^6 SN12C-pEGFP were injected in the right flank of each mouse and treated with AMD3100 (1.25 mg/kg) and peptides (2 mg/kg) for 10 days ip. A week later mice were euthanized and tumor volume evaluated through Leica MacroFluo fluorescence stereomicroscope (Leica microsystem, Houston, TX). The experiment was repeated three times. The Istituto Nazionale per lo Studio e la Cura dei Tumori, Fondazione Giovanni Pascale Independent Etical Comettee approved the study (CEI/600/12).
(A) B16-CXCR4 tumor cells pre-treated for 30 minutes with AMD3100 (10 µM), peptide R (10 µM), peptide I (10 µM), or peptide S (10 µM) were inoculated into the tail vein of C57/B female mice and the mice were further treated intraperitoneally for 10 days with 1.25 mg/kg AMD3100, or 2 mg/kg peptide R, peptide I or peptide S. Gross examination of representative lungs; (B) Graphical representation of the number of lung metastases in treated mice. Double tailed T-Test was used for statistical analyses. The experiments were repeated three times.

P-ERK1/2 = assay: CXCL12-induced p-ERK induction (immunoblotting); type: cell-based, human; conditions: PES43 cells serum-starved, CXCL12 100 ng/ml, after 5 minutes
Experimental: Cells were homogenized in lysis buffer (40 mM Hepes pH 7,5, 120 mM NaCl, 5 mM MgCl2, 1 mM EGTA, 0,5 mM EDTA, 1% Triton X-100) containing protease (Complete Tablets- EDTA-free, Roche) and phosphatase inhibitors (20 mM α-glycerol-3-phosphate, 2,5 mM Na-pyrophosphate). The following primary antibodies were used: anti-p-ERK (sc7383, Santa Cruz Biotechnology, Inc., Santa Cruz, CA, USA) and anti-ERK2 (sc 154G, Santa Cruz Biotechnology CA, USA). P-Erk induction was plotted as ratio P-Erk in the presence of CXCL12 (100 ng/ml)/P-Erk in serum free.
(§2) Experiments were conducted using PES43 cells. (A) Migration was assayed in 24-well Transwell chambers using inserts with 8-µm pore membrane. […] Migrated cells on the lower surface were fixed, stained with H&E and counted microscopically. The results are expressed as the migration index relative to migration in presence of BSA alone. […] Images were acquired with OKO Time Lapse. […] PES43 cells were serum-starved and incubated with CXCL12 (100 ng/ml) alone or in presence of AMD3100/peptides. Each peptide was tested in at least three different experiments. Double tailed T-Test was used for statistical analyses. Differences were considered significant at P<0.05 compared to control.
PES43 cell lines were serum starved for 16 hours. […] (TIF) Click here for additional data file.

[2] = tested on: SN12C-EGFP renal cancer cells; assay: SN12C-pEGFP subcutaneous xenograft tumor growth; type: in vivo, CD1 nude mice; conditions: IP 10 days, peptides 2 mg/kg, AMD3100 1.25 mg/kg; measured a week later by fluorescence stereomicroscope; control 65.97±35.1; average
Experimental: as §1
6 to 8-week-old female CD1 nude mice were injected subcutaneously with 2×10^6 pEGFP-SN12C cells pre-treated with 10 µM AMD3100 or 10 µM of each peptide. Beginning the following day mice were further treated intraperitoneally for 10 days with 1.25 mg/kg AMD3100 or 2 mg/kg of peptides R, I or S. A week later mice were euthanized and tumor volume evaluated directly from the flank of mice using a Leica MacroFluo fluorescence stereomicroscope (Leica microsystem, Houston, TX) (A). The experiments were repeated three times. B. SN12C-PEGFP cells migration toward CXCL12 in the presence of AMD3100 or Peptide R, S and I.

[3] = tested on: PES43 human melanoma cells; assay: CXCL12-dependent Transwell migration of PES43 cells; type: cell-based; conditions: 100 ng/mL CXCL12 in lower chamber, 16 h, tested 10 nM, 100 nM, 1 µM, 10 µM
Experimental: (§3) Migration was assayed in 24-well Transwell chambers (Corning Inc., Corning, NY) using inserts with an 8-µm pore membrane. Membranes were precoated with collagen (human collagen type I/III) and fibronectin (20 µg/mL each). […] After 16 h incubation, cells on the upper surface of the filter were removed using a cotton wool swab; migration of cells in migration media alone was compared with migration in media containing CXCL12. The cells were counted in ten different fields (original magnification ×40). The migration index was defined as the ratio between migrating cells in the experimental group and migrated cells in the control group. For the wound closure assay, tested cells were allowed to reach confluence in six-well plates containing serum-depleted growth medium and scratched with pipette tips to make wounds. The wound closure was observed microscopically 6 hours post-wounding (OKO Time Lapse).
as §2

CXCR4 [4] = assay: Competition with 12G5 anti-CXCR4 antibody binding (flow cytometry); design: species or system human; conditions: CCRF-CEM cells, 10 µM peptide, 30 min pre-incubation at 37°C, PE-labelled 12G5, flow cytometry; at least three experiments
Experimental: (§4) CXCR4 binding was evaluated as previously described. Briefly 5×10^5 CCRF–CEM cells were pre-incubated with 10 µM peptides or AMD3100 in binding buffer (PBS 1× plus 0.2% BSA and 0.1% NaN3) for 30 minutes at 37°C, 5% CO2 and then labeled for 30 minutes with anti-CXCR4 PE-antibody (FAB170P, clone 12G5, R&D Systems, Minneapolis, MN, USA). The cells were analyzed by FACS Canto II cytofluorometer (Becton Dickinson Immunocytometry Systems, Mountain View, CA, USA).
(§5) (A) The amount of peptides or AMD3100 bound was assessed indirectly by flow cytometry using the PE-labelled anti-CXCR4 antibody (clone 12G5). Results are expressed as the percent antibody bound. (B) The Ca^2+ influx assay was performed using CCRF-CEM cells and Fluo-3 AM calcium indicator. CCRF-CEM cells were incubated 30 minutes at 37°C with Fluo-3 AM and 15 minutes with AMD3100 (10 µM)/peptides (10 µM) and then treated with CXCL12. Results are expressed as the percent of Fluo-3 AM fluorescence in presence of CXCL12 alone. Each peptide was tested in at least three different experiments. Double tailed T-Test was used for statistical analyses. Differences were considered significant at P<0.05 compared to control. Control (CTRL).

CXCR4 [5] = assay: CXCL12-induced calcium mobilization assay (Fluo-3 AM); type: cell-based, human; conditions: CCRF-CEM cells, 10 µM peptide, percent of fluorescence with CXCL12 alone; at least three experiments
Experimental: For the calcium efflux studies a 2 mg/mL stock solution of Fluo-3 acetoxymethylester (Invitrogen, Carlsbad, CA) in anhydrous DMSO was used. […] CCRF–CEM cells were resuspended in cell loading buffer (PBS, 1% FCS, 1 mmol/L MgCl2, and 1 mmol/L CaCl2) at 5×10^5 cells/mL. Fluo-3AM and Pluronic acid were added to each sample to increase Fluo-3AM solubility and improve dye loading into the cells. Baseline calcium efflux was established, then chemokines were added as indicated and chemokine-induced calcium efflux was measured.
as §5

[6] = tested on: PES43 human melanoma cells; assay: CXCL12-mediated wound closure assay; type: cell-based; conditions: 6 hours post-wounding
Experimental: as §3, §2

CXCR3 = assay: Anti-CXCR3 antibody (clone 1C6/CXCR3) binding in CXCR3 overexpressing cells; design: species or system human; conditions: COLO205 cells; peptides 10 µM, CXCL11 100 nM, 30 min pre-incubation; Figure S3
Experimental: [The procedure below names another target; the source says it served here with some conditions changed.] as §4
(§6) Fluo-3AM and Pluronic acid were added to each sample to increase Fluo-3AM solubility and improve dye loading into the cells. (TIF) Click here for additional data file.

CXCR7 = assay: Anti-CXCR7 antibody (clone 11G8) binding in CXCR7 overexpressing cells; design: species or system human; conditions: MCF-7 cells; peptides 10 µM, CXCL11 100 nM, 30 min pre-incubation; Figure S3
Experimental: [The procedure below names another target; the source says it served here with some conditions changed.] as §4, §6

| Compound | fold reduction of the number of lung metastases vs control [1] | number of lung metastases ([1]; control 8.4±3.49, average) | CXCL12-mediated p-ERK induction (P-ERK1/2) | tumor volume of SN12C-GFP xenograft [2] | concentration at which CXCL12-dependent migration was inhibited [3] | association of the 12G5-CXCR4 antibody to the receptor (CXCR4 [4]) | CXCL12-induced calcium efflux (Fluo-3 AM fluorescence) (CXCR4 [5]) | CXCL12-mediated wound healing [6] | binding to CXCR3 (anti-CXCR3 antibody) (CXCR3) | binding to CXCR7 (anti-CXCR7 antibody) (CXCR7) |
| --- | --- | --- | --- | --- | --- | --- | --- | --- | --- | --- |
| c1cc(CN2CCCNCCNCCCNCC2)ccc1CN1CCCNCCNCCCNCC1 [AMD3100, reference compound] | 5.6 fold | 1.5±2.9 | reduced | 35.53±10.42 mm^3 | – | – | – | – | – | – |
| Arg-Ala-[Cys-Arg-Tyr-Trp-Cys] [Peptide T] | – | – | not | – | ≤ 10 nM | 22 % of control | 33.65 % of control | delayed | – | – |
| CXCL11: specific ligand (chemokine) that inhibited antibody binding to CXCR3 or CXCR7 | – | – | – | – | – | – | – | – | inhibited | inhibited |
